The source of these data is US20090111710A1, “CELLULAR SIGNALING PATHWAY BASED ASSAYS, REAGENTS AND KITS” (Cell NetwoRX LLC, priority 2005, published 2009).

What is called IC50 is the concentration needed to halve the response being measured.

Test [1] deals with relevant target and pathway. The note with it: cited from earlier work.
For test [2], the system named is PKC subtypes □, □ and □. The settings on record: >uM; cited from earlier work.
The test system of test [3] is PKC □. The settings on record: read-out: Reported Potency IC50; cited from earlier work.
Test [4] deals with MEK ½ (Homo sapiens, UniProt P36507). The note with it: second value, read-out: Reported Potency IC50; cited from earlier work.
Test [5] addresses ERK1 (Homo sapiens, UniProt P27361). The settings on record: read-out: Selectivity: ERK1 activity IC50; cited from earlier work.
The target in test [6] is MEK ½ (Homo sapiens, UniProt Q02750). The note with it: first value, read-out: Reported Potency IC50; cited from earlier work.
The target in test [7] is T1, MKK4 (Homo sapiens, UniProt P45985).
T1 sequence (P45985 1-399): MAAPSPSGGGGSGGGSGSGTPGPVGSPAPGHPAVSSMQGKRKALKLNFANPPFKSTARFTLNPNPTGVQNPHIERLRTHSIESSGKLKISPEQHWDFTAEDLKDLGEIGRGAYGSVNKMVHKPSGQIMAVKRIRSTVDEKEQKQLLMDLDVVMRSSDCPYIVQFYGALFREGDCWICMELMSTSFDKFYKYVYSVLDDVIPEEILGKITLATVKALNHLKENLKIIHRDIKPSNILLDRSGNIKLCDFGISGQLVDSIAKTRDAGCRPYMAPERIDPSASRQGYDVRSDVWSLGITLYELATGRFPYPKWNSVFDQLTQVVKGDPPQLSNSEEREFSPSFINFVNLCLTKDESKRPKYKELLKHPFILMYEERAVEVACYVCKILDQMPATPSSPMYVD
The settings on record: read-out: Selectivity: MKK4 activity IC50; cited from earlier work.

Test [8] relates to angiogenesis. The settings on record: in vivo; cited from earlier work.
Test [9] relates to HUVEC. The settings on record: 48 hrs, 20 nM VEGF; standard deviation of 10%.
Experimental: The cellular phenotypes, cell proliferation and/or cell death are measured using viable cell number determination methods. Measurement of cell proliferation and cytotoxicity using the luminescent assay ViaLight™-HS High Sensitivity Cytotoxicity and Cell Proliferation BioAssay Kit from Cambrex (East Rutherford, N.J.) is optimized for HUVECs. Linear detection of cell proliferation or cell survival is possible from as few as 100 and up to 10^6 cells. […] An alternative measurement of both ATP and ADP levels provides a ratio measurement indicating cells proliferation versus cell death.
The conditions of test [10]: Phase III, patients with wet AMD; cited from earlier work.

Sequence of MEK ½ (Homo sapiens, UniProt P36507) (P36507 whole entry): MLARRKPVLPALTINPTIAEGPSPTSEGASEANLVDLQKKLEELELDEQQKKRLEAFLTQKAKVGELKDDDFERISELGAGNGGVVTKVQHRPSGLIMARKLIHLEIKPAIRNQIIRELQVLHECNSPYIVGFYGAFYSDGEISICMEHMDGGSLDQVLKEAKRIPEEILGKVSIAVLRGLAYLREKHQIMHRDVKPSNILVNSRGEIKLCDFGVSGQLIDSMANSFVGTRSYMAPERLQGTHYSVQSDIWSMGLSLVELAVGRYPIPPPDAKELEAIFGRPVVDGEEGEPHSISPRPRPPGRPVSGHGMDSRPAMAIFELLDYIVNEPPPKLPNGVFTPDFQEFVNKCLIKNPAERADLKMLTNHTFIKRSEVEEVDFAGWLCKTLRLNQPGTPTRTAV
Sequence of MEK ½ (Homo sapiens, UniProt Q02750) (Q02750 whole entry): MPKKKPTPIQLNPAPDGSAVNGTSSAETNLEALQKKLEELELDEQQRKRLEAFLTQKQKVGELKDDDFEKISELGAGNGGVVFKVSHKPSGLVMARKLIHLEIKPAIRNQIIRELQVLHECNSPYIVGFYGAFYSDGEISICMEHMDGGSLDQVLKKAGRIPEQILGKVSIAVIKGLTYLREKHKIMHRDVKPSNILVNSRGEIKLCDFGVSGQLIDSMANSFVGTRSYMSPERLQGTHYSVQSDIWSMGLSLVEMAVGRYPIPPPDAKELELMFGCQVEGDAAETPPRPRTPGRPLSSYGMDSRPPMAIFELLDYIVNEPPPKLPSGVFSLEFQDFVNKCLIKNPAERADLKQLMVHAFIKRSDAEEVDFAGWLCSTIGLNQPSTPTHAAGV
Sequence of ERK1 (P27361 whole entry, species assumed): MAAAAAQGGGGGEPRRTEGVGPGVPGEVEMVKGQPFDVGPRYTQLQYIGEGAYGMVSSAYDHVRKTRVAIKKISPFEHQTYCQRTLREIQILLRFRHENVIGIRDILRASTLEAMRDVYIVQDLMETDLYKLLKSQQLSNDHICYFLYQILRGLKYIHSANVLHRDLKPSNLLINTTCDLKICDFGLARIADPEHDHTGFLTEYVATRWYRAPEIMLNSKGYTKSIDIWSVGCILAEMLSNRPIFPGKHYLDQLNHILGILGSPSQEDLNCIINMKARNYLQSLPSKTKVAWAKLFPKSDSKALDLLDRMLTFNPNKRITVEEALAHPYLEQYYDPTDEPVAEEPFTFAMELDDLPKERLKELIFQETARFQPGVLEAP

For the molecule `Cn1c2ccccc2c2c3c(c4c5ccccc5n(CCC#N)c4c21)CNC3=O` [Go 6976], the “activity against the relevant target and pathway in vivo” value (shortened to “activity … in vivo”) in test [1] is on record as “shown activity”. In addition, in test [2], the “Selectivity: effect on the kinase activity of PKC subtypes □, □ and □” value is listed as “>uM no effect”. Further, the half-inhibitory concentration (IC50) in test [3] was 2.3 nM.
Regarding `C[S+]([O-])c1ccc(-c2nc(-c3ccncc3)c(-c3ccc(F)cc3)[nH]2)cc1` (stereo not drawn) [SB 203580], the “activity … in vivo” value in test [1] is recorded as “shown activity”.
With `N#C/C(=C(/N)Sc1ccc(N)cc1)c1ccccc1C(F)(F)F` [SL327], the 50% inhibitory concentration (IC50) in test [4] is 220 nM; in [5], above 10000 nM; in test [6] it was 180 nM; in test [7] it was above 10000 nM.
Regarding `Cc1cc(C)c(/C=C2\C(=O)Nc3ccccc32)[nH]1` [SU5416], in test [1], the “activity … in vivo” value is “shown activity”. Moreover, the “angiogenesis in the wound-healing model” value in [8] is listed as “block angiogenesis”.
Regarding VEGF, the “signal to noise for HUVEC proliferation” value in test [9] amounted to 2 fold.

B1: Lucentis: humanized antibody fragment developed at Genentech, designed to bind and inhibit Vascular Endothelial Growth Factor A (antibody, chains of the INN, looked up, V domains shown)
VH: EVQLVESGGGLVQPGGSLRLSCAASGYDFTHYGMNWVRQAPGKGLEWVGWINTYTGEPTYAADFKRRFTFSLDTSKSTAYLQMNSLRAEDTAVYYCAKYPYYYGTSHWYFDVWGQGTLVTVSS
VL: DIQLTQSPSSLSASVGDRVTITCSASQDISNYLNWYQQKPGKAPKVLIYFTSSLHSGVPSRFSGSGSGTDFTLTISSLQPEDFATYYCQQYSTVPWTFGQGTKVEIK
modifications: Fab
With B1, the vision entry in test [10] was “improved vision”.
